According to EP4198033A1, “HETEROCYCLIC COMPOUNDS FOR THE CONTROL OF INVERTEBRATE PESTS” (priority 2021, dated 2023):

Experiments:
Type in all cases: in vivo
[1] = system: Boll weevil (Anthonomus grandis); assay: Boll weevil test, insect diet with eggs in 96-well microtiter plates; settings: 120 h, egg and larval mortality, 5 days, read-out: mortality in comparison with untreated controls
Procedure: For evaluating control of boll weevil (Anthonomus grandis) the test unit consisted of 96-well-microtiter plates containing an insect diet and 5-10 A. grandis eggs.
The compounds were formulated using a solution containing 75% v/v water and 25% v/v DMSO. Different concentrations of formulated compounds were sprayed onto the insect diet at 5 µl, using a custom-built micro atomizer, at two replications.
After application, microtiter plates were incubated at about 25±1°C and about 75±5 % relative humidity for 5 days. Egg and larval mortality was then visually assessed.

[2] = system: Tobacco budworm (Heliothis virescens); assay: Tobacco budworm test, insect diet with eggs in 96-well microtiter plates; settings: 120 h, egg and larval mortality, 5 days, read-out: mortality in comparison with untreated controls
Procedure: For evaluating control of tobacco budworm (Heliothis virescens) the test unit consisted of 96-well-microtiter plates containing an insect diet and 15-25 H. virescens eggs.
The compounds were formulated using a solution containing 75% v/v water and 25% v/v DMSO. Different concentrations of formulated compounds were sprayed onto the insect diet at 10 µl using a custom-built micro atomizer, at two replications.
After application, microtiter plates were incubated at about 28±1°C and about 80±5 % relative humidity for 5 days. Egg and larval mortality was then visually assessed.

[3] = system: Yellow fever mosquito (Aedes aegypti); assay: whole plant or invertebrate; settings: 48 h, larval mortality, 2 days, read-out: mortality in comparison with untreated controls
Procedure: For evaluating control of yellow fever mosquito (Aedes aegypti) the test unit consisted of 96-well-microtiter plates containing 200µl of tap water per well and 5-15 freshly hatched A. aegypti larvae.
The active compounds were formulated using a solution containing 75% (v/v) water and 25% (v/v) DMSO. Different concentrations of formulated compounds or mixtures were sprayed onto the insect diet at 2.5µl, using a custom-built micro atomizer, at two replications.
After application, microtiter plates were incubated at 28±1 °C, 80±5 % RH for 2 days. Larval mortality was then visually assessed.

[4] = system: Diamond back moth (Plutella xylostella); assay: Diamond back moth leaf-dip test on cabbage leaves; settings: 72 h, read-out: mortality in comparison with untreated controls
Procedure: The active compound was dissolved at the desired concentration in a mixture of 1:1 (vol:vol) distilled water: acetone. Surfactant (Kinetic HV) was added at a rate of 0.01% (vol/vol). The test solution was prepared on the day of use.
Leaves of cabbage were dipped in test solution and air-dried. Treated leaves were placed in petri dishes lined with moist filter paper and inoculated with ten 3rd instar larvae. Mortality was recorded 72 hours after treatment. Feeding damages were also recorded using a scale of 0-100%.

[5] = system: Southern armyworm (Spodoptera eridania), 2nd instar larvae; assay: Southern armyworm foliar spray test on lima bean plants; settings: 96 h, 4 days after treatment, read-out: mortality in comparison with untreated controls
Procedure: The active compounds were formulated by a Tecan liquid handler in 100% cyclohexanone as a 10,000-ppm solution supplied in tubes. The 10,000-ppm solution was serially diluted in 100% cyclohexanone to make interim solutions. These served as stock solutions for which final dilutions were made by the Tecan in 50% acetone:50% water (v/v) into 10 or 20ml glass vials. A nonionic surfactant (Kinetic®) was included in the solution at a volume of 0.01% (v/v). The vials were then inserted into an automated electrostatic sprayer equipped with an atomizing nozzle for application to plants/insects. Lima bean plants (variety Sieva) were grown 2 plants to a pot and selected for treatment at the 1st true leaf stage. Test solutions were sprayed onto the foliage by an automated electrostatic plant sprayer equipped with an atomizing spray nozzle. The plants were dried in the sprayer fume hood and then removed from the sprayer. Each pot was placed into perforated plastic bags with a zip closure. Ten to 11 armyworm larvae were placed into the bag and the bags zipped closed. Test plants were maintained in a growth room at about 25°C and about 20-40% relative humidity for 4 days, avoiding direct exposure to fluorescent light (14:10 light:dark photoperiod) to prevent trapping of heat inside the bags. Mortality and reduced feeding were assessed 4 days after treatment, compared to untreated control plants.

[6] = system: Green Peach Aphid (Myzus persicae); assay: Green peach aphid systemic test, artificial diet in 96-well microtiter plates; settings: 72 h, adult aphids, 3 days, read-out: mortality in comparison with untreated controls
Excerpt: For evaluating control of green peach aphid (Myzus persicae) through systemic means the test unit consisted of 96-well-microtiter plates containing liquid artificial diet under an artificial mem brane.
The compounds were formulated using a solution containing 75% v/v water and 25% v/v DMSO. Different concentrations of formulated compounds were pipetted into the aphid diet, using a custom built pipetter, at two replications.
After application, 5-8 adult aphids were placed on the artificial membrane inside the microtiter plate wells. The aphids were then allowed to suck on the treated aphid diet and incubated at about 23±1°C and about 50±5 % relative humidity for 3 days. Aphid mortality and fecundity was then visually assessed.

CC(NC(=O)c1cc(Br)cc(C(F)(F)F)c1)c1ocnc1-c1ncc(OC(F)F)cn1 (centres unmarked) [I-1, 3-bromo-N-[1-[4-[5-(difluoromethoxy)pyrimidin-2-yl]oxazol-5-yl]ethyl]-5-(trifluoromethyl)benzamide]
≥ 75%: mortality at 2500 ppm [1] | mortality at 2500 ppm [2] | mortality at 2500 ppm [3] | mortality at 300 ppm [4] | mortality at 300 ppm [5]

CCN(C(=O)c1cc(OC(F)F)cc(C(F)(F)F)c1)C(C)c1ncoc1-c1ncccn1 (centres unmarked) [I-5, 3-(difluoromethoxy)-N-ethyl-N-[1-(5-pyrimidin-2-yloxazol-4-yl)ethyl]-5-(trifluoromethyl)benzamide]
≥ 75%: mortality at 2500 ppm [1] | mortality at 2500 ppm [6]

CC(NC(=O)c1cc(OC(F)F)cc(C(F)(F)F)c1)c1ncoc1-c1ncccn1 (centres unmarked) [I-3, 3-(difluoromethoxy)-N-[1-(5-pyrimidin-2-yloxazol-4-yl)ethyl]-5-(trifluoromethyl)benzamide]
≥ 75%: mortality at 2500 ppm [1] | mortality at 2500 ppm [3] | mortality at 2500 ppm [6] | mortality at 300 ppm [5]
